Test results published in patent publication US8178517B2, “6-methylvitamin D3 analogs and their uses” (Wisconsin Alumni Research Foundation, priority 2009, dated 2012).

Tests used:
HL-60 cells = assay: HL-60 differentiation (nitro blue tetrazolium reduction); type: cell-based, human; details: for EC50: Homo sapiens, HL-60 cells, differentiation into monocytes, FIG. 2, read-out: EC50, HL-60 cell differentiation
Experimental: Serial dilutions were prepared so that a range of drug concentrations could be tested without changing the final concentration of ethanol (≦0.2%) present in the cell cultures.
Human promyelocytic leukemia (HL60) cells were grown in RPMI-1640 medium containing 10% fetal bovine serum. The cells were incubated at 37° C. in the presence of 5% CO2.
HL60 cells were plated at 1.2×10^5 cells/ml. Eighteen hours after plating, cells in duplicate were treated with drug. Four days later, the cells were harvested and a nitro blue tetrazolium reduction assay was performed (Collins et al., 1979; J. Exp. Med. 149:969-974). The percentage of differentiated cells was determined by counting a total of 200 cells and recording the number that contained intracellular black-blue formazan deposits. Verification of differentiation to monocytic cells was determined by measuring phagocytic activity (data not shown).

[1] = tested on: 24-hydroxylase (24Ohase) gene promoter; assay: In vitro transcription assay (24-hydroxylase promoter luciferase reporter in ROS 17/2.8 bone cells); type: cell-based; details: for EC50: ROS 17/2.8 bone cells, luciferase reporter, FIG. 3, read-out: EC50, transcriptional activity in bone cells (24-hydroxylase gene)
Experimental: In Vitro Transcription Assay
Transcription activity was measured in ROS 17/2.8 (bone) cells that were stably transfected with a 24-hydroxylase (24Ohase) gene promoter upstream of a luciferase reporter gene (Arbour et al., 1998). Cells were given a range of doses. Sixteen hours after dosing the cells were harvested and luciferase activities were measured using a luminometer.
RLU=relative luciferase units.

[2] = tested on: vitamin D-deficient rats on a low calcium diet; assay: Intestinal calcium transport, everted gut sac method; type: in vivo, rat; details: for intestinal calcium transport activity (everted gut sac): 7020 pmol/day for 4 consecutive days
Experimental: (§1) Intestinal Calcium Transport and Bone Calcium Mobilization
(§2) Male, weanling Sprague-Dawley rats were placed on Diet 11 (0.47% Ca) diet+AEK oil for one week followed by Diet 11 (0.02% Ca)+AEK oil for 3 weeks. The rats were then switched to a diet containing 0.47% Ca for one week followed by two weeks on a diet containing 0.02% Ca. Dose administration began during the last week on 0.02% calcium diet. Four consecutive ip doses were given approximately 24 hours apart. Twenty-four hours after the last dose, blood was collected from the severed neck and the concentration of serum calcium determined as a measure of bone calcium mobilization. The first 10 cm of the intestine was also collected for intestinal calcium transport analysis using the everted gut sac method.

[3] = tested on: vitamin D-deficient rats on a low calcium diet; assay: Bone calcium mobilization (serum calcium) in vitamin D-deficient rats; type: in vivo, rat; details: for serum calcium (bone calcium mobilization): 7020 pmol/day ip for 4 consecutive days, rats on 0.02% Ca diet
Experimental: as §1, §2

[4] = target: T1, full-length recombinant rat vitamin D receptor (Rattus norvegicus, UniProt P13053); assay: biochemical
T1 sequence (P13053 1-423): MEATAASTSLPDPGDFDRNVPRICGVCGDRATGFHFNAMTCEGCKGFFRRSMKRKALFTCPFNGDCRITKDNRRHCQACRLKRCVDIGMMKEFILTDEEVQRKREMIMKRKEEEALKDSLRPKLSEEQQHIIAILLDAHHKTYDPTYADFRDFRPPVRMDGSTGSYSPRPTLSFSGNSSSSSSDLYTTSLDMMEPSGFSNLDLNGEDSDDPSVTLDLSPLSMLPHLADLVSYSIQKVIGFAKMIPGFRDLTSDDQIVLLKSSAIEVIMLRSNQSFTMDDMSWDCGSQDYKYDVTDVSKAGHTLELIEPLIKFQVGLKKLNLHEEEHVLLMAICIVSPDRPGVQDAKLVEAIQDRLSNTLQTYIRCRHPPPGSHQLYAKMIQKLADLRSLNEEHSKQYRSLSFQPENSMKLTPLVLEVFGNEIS
Description: Vitamin D Receptor Binding
Full-length recombinant rat receptor was expressed in E. coli BL21 (DE3) Codon Plus RIL cells and purified to homogeneity using two different column chromatography systems. The first system was a nickel affinity resin that utilizes the C-terminal histidine tag on this protein. The protein that was eluted from this resin was further purified using ion exchange chromatography (S-Sepharose Fast Flow). Aliquots of the purified protein were quick frozen in liquid nitrogen and stored at −80° C. until use. For use in binding assays, the protein was diluted in TEDK50 (50 mM Tris, 1.5 mM EDTA, pH7.4, 5 mM DTT, 150 mM KCl) with 0.1% Chaps detergent.
Radiolabeled and unlabeled ligands were added to 100 mcl of the diluted protein at a final ethanol concentration of ≦10%, mixed and incubated overnight on ice to reach binding equilibrium. The following day, 100 mcl of hydroxylapatite slurry (50%) was added to each tube and mixed at 10-minute intervals for 30 minutes. The hydroxylapaptite was collected by centrifugation and then washed three times with Tris-EDTA buffer (50 mM Tris, 1.5 mM EDTA, pH 7.4) containing 0.5% Titron X-100. […] Total binding was determined from the tubes containing only radiolabeled ligand.

[5] = Isomerization to previtamin form / storage stability; type: physicochemical; details: can be stored by a prolonged time in a freezer
[6] = relative to 1α,25-dihydroxyvitamin D3
[7] = relative to 1,25(OH)2D3, in vivo, rats

| SMILES | EC50 (HL-60 cells) | EC50 [1] | intestinal calcium transport activity (everted gut sac) ([2]; rats, FIG. 5) | serum calcium (bone calcium mobilization) ([3]; FIG. 4) | effect on serum calcium levels across dosages ([3]; all dosages tested, FIG. 4) | times less activity than 1α,25-dihydroxyvitamin D3 in HL-60 cell differentiation (HL-60 cells; [6]) | times less transcriptional activity in bone cells than 1α,25-dihydroxyvitamin D3 [1, 6] | Ki [4] | dose dependence of intestinal calcium transport ([2]; across doses, FIG. 5) | times less potent than 1,25(OH)2D3 in stimulating intestinal calcium transport [2, 7] | stability (isomerization to previtamin D form) [5] | times less potent than 1,25(OH)2D3 in mobilizing calcium from bone [3, 7] |
| --- | --- | --- | --- | --- | --- | --- | --- | --- | --- | --- | --- | --- |
| C=C1C(=CC=C2CCCC3(C)C2CCC3C(C)CCCC(C)(C)O)CC(O)CC1O (stereo not drawn) [1,25(OH)2D3, 1α,25-dihydroxyvitamin D3, reference compound] | 2 nM | 0.2 nM | 8.3 | 7.6 mg/dL | increased serum calcium levels at all dosages | – | – | – | – | – | – | – |
| C=C1/C(=C(C)\C=C2/CCC[C@@]3(C)C2CCC3[C@H](C)CCCC(C)(C)O)C[C@@H](O)C[C@@H]1O (stereo partly drawn) [Me-Cvit, 1α,25-dihydroxy-6-methylvitamin D3] | 80 nM | 4 nM | 4.8 | 4.3 mg/dL | – | ~20 times | ~10 times | 0.02 nM | promotes intestinal calcium transport in a dose dependent manner | greater than 1,000 times | very easily isomerizes to its previtamin D form 5 | about 400 times |
